{"source": "patent US11524003B2", "about": "“Alpha-amino esters of hydroxypropylthiazolidine carboxamide derivative and salt form, crystal polymorph thereof” (ObsEva S.A., priority 2016, dated 2022)", "key": {"[1]": {"assay": "Stability in HBSS buffer of the Caco-2 experiments", "assay_type": "in vitro ADME", "details": "HBSS buffer (2% DMSO final concentration) at 37° C. for 60 and 120 minutes", "procedure": "Stability of both compound I and compound II was assessed during the test. […] An aliquot of each solution was sampled at time zero (t=0) to assess the starting concentrations of the compounds. The solutions were incubated at 37° C. for the duration of the transport experiment. An aliquot of each solution was sampled at the end of experiment (t=120) to assess the final concentrations of compound I and compound II. Samples were analyzed by LC-MS."}, "[2]": {"test_system": "other prostaglandin receptor subtypes", "details": "FP over other subtypes", "procedure": "(§1) Selectivity of compound II was tested against all eight prostaglandin receptor subtypes."}, "[3]": {"biological_target": "prostaglandin E receptor 2 (EP2) (Homo sapiens, UniProt P43116)", "sequence (P43116 whole entry)": "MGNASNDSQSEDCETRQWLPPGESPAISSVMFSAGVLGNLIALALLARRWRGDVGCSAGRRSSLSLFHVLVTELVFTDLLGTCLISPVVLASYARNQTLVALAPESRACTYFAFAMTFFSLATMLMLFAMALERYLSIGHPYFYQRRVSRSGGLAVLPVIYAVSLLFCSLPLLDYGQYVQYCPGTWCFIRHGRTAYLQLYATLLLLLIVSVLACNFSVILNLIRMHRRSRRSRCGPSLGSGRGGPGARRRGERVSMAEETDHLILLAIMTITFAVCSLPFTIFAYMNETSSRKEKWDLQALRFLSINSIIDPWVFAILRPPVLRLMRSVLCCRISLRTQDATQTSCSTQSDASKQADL", "details": "FP over EP2", "procedure": "as §1"}, "[4]": {"test_system": "OT-induced myometrial contractility", "assay": "Oxytocin-induced contractions of human myometrial biopsies (myograph)", "details": "6, 60, 600, 6000 nM", "procedure": "Experiments were performed using a DMT Myograph 800 MS (ADINSTRUMENTS™) in oxygenated Kreb's solution with ADI Powerlab software. Once regular contractions had been established for at least 20 minutes, baseline measurements of spontaneous contraction frequency were recorded. The measurement of spontaneous contraction frequency is represented on the x-axis as “Spon.” A DMSO control or compound II was then added to each myometrial sample at the indicated concentrations and the effects of control or compound II on contractile frequency were measured over the ensuing 10-minute period. This time point is represented on the x-axis as “Compound II.” The effects of compound II on contractile frequency in the presence of OT were subsequently measured by challenging the myometrial tissue samples with increasing concentrations of OT (1 nM, 10 nM, and 100 nM) at sequential 10-minute intervals. […] Once regular contractions had been established for at least 20 minutes, baseline measurements of spontaneous work done per contraction were recorded. The measurement of spontaneous work done per contraction is represented on the x-axis as “Spon.” A DMSO control or compound II was then added to each myometrial sample at the indicated concentrations and the effects of control or compound II on work done per contraction were measured over the ensuing 10-minute period. […]"}, "[5]": {"test_system": "panel of 50 receptors, channels and enzymes binding sites", "details": "1 μM"}}, "data": [{"smiles": "O=C(N[C@@H](CCO)c1ccc(F)cc1)[C@@H]1SCCN1S(=O)(=O)c1ccc(-c2ccccc2)cc1", "note": "[Compound II, 3-([1,1′-biphenyl]-4-ylsulfonyl)-N-[1-(4-fluorophenyl)-3-hydroxypropyl]-1,3-thiazolidine-2-carboxamide]", "values": [{"measurement": "Stability in HBSS buffer", "setting": "[1]", "value": "stable"}, {"measurement": "Selectivity against other prostaglandin receptors", "setting": "[2]", "value": "higher than 100 fold"}, {"measurement": "Selectivity versus prostaglandin E receptor 2 (EP2)", "setting": "[3]", "value": "approximately 10 fold"}, {"measurement": "Effect on OT-induced myometrial contractility", "setting": "[4]", "value": "suppressing both PGF2α-induced and OT-induced myometrial contractility in a dose-dependent fashion"}, {"measurement": "Selectivity in panel of 50 receptors, channels and enzymes", "setting": "[5]", "value": "high selectivity for FP"}]}]}
